Results reported in patent US20240207265A1, “TREATMENT OF CNS DISEASES WITH sGC STIMULATORS” (Tisento Therapeutics Inc., priority 2021, published 2024).

Tests used:
[1] = tested on: cAMP response element-binding protein (CREB); test: sGC stimulator induced phosphorylation of CREB in rat primary neurons; type: cell-based; conditions: Primary neuron, 10 μM DETA-NONOate, free acid, geometrical mean, read-out: pCREB EC50
Description: Neurons were isolated from Sprague Dawley rat embryos on embryonic day 18 (E18). Approximately 10 embryos were obtained from each rat, and whole brains were isolated from the embryos. Hippocampus and cortex were dissected from the brains under a stereoscopic microscope using two fine tweezers. The meninges were carefully removed. After dissection, the tissues were chopped and washed gently once with 10 mL of Ca^2+ and Mg^2+ free Hank's balanced salt solution (HBSS, Corning cat #21-022-CM) in a 15-mL conical tube. After washing, 5 mL of a solution of 0.25% trypsin (Invitrogen cat #15090-046) and 0.1% deoxyribonuclease I (DNase I, Sigma cat #DN-25) were added to the tissues, then incubated at 37° C. for 15 min. Next, tissues were washed 3 times with ice-cold HBSS, 3 mL of a solution of 0.1% of DNase I was added, then tissues were slowly pipetted 12 times using a glass Pasteur pipette, followed by centrifugation at 500×g for 10 min. […]
For each test concentration, the compound was diluted in 100% DMSO to 100× its final assay concentration. […] Medium was removed, cells were lysed and levels of pCREB was determined according to Cisbio protocols (phospho-CREB (Ser133) catalog #64CREPEG). Plates were read using Envision instrument (PerkinElmer).
pCREB was determined for each well and analyzed with a […] (log(agonist) vs. response-variable slope) using GraphPad Prism Software v.8. […]

[2] = Microdialysis experiments in rat brain; type: in vivo; conditions: 3 mg/kg PO as sodium salt, Sprague Dawley rats
Description: The goal of the current study was to evaluate levels of sGC stimulators of the invention in the hippocampus and striatum interstitial fluid (ISF), as well as in the circulating plasma after administration to Sprague Dawley male rats. To do so, rats were implanted with microdialysis probes in the hippocampus and striatum and a jugular vein cannula (JVC). After the collection of one pre-dose ISF sample, animals were dosed with sGC stimulator. Samples were collected for 24 hours through a hippocampal and striatal probe as well as serial plasma sampling collected through the JVC after administration. All collected samples were stored at −80° C. waiting for analysis on compound levels in the dialysate.
Five Sprague Dawley rats pre-cannulated with a jugular vein cannula were used for this study. Upon arrival, rats were group-housed in polycarbonate cages (2-3/cage) and acclimated for at least 3 days prior to commencing studies. Animals were housed in a 12 hr light/dark cycle with room temperature maintained at 22+2° C. and approximately 50% humidity and received food and water ad libitum. Rats were tracked via unique identifying numbers. Experiments were conducted in accordance with protocols approved by the Institutional Animal Care and Use Committee of Charles River Laboratories South San Francisco. […]

EC50 [1] | SMILES | side effects of the treatment [2]
21 nM | Cc1cc(F)c(Cc2nc(-c3ncc(F)c(O)n3)cn3ccnc23)cc1F [Compound I-14, 5-fluoro-2-(8-(2,5-difluoro-4-methylbenzyl)imidazo[1,2-a]pyrazin-6-yl)pyrimidin-4-ol] | No obvious side effects
13 nM | Oc1nc(-c2cn3ccnc3c(Cc3cc(F)ccc3F)n2)ncc1F [Compound I-20, 5-fluoro-2-(8-(2,5-difluorobenzyl)imidazo[1,2-a]pyrazin-6-yl)pyrimidin-4-ol] | 
